From patent US10934303B2, “Aryl ethene derivative and pharmaceutical composition containing same as active ingredient” (priority 2016, dated 2021)
Where two headings read alike, the source gives them in different places.

Assays:
hERG channel = hERG channel (Homo sapiens (Human), UniProt Q12809); settings: read-out: hERG IC50; fluorescence polarization assay
[1] = target: GST-bound ERR gamma ligand-binding domain (LBD) (Homo sapiens (Human), UniProt P62508); test: ERRγ binding assay (inverse agonist assay), TR-FRET; settings: TR-FRET, PGC1a coactivator; read-out: Binding Assay, IC50 ERRγ
Description: 1) ERRγ Binding Assay (Inverse Agonist Assay)
(§2) The arylethene derivative of the present invention was sequentially added to a 384 well plate from a concentration of 10 μM to a final concentration of two-fold dilution. […] After all reagents were added, a reaction was carried out with gentle shaking at 20° C. for 1 hour, and after the reaction, a binding activity was measured by a TR-FRET method.

GST-bound ERR alpha LBD = GST-bound ERR alpha LBD (Homo sapiens (Human), UniProt P11474); settings: TR-FRET, PGC1a coactivator; read-out: Binding Assay, IC50 ERRα
Description: as §2

[2] = target: GST-bound ER alpha ligand-binding domain (LBD) (Homo sapiens (Human), UniProt P03372); test: biochemical
Description: as §2

ERRγ = format: cell-based
CYP2C9 = CYP2C9 (Homo sapiens (Human), UniProt P11712); test: Cytochrome P450 activity inhibition, CYP2C9; format: in vitro ADME; settings: 10 μM, human liver microsomes, Diclofenac substrate
Excerpt: (§1) 1) Cytochrome P450 (CYP450) Activity Inhibition Evaluation

[3] = 1 μM, 30 minutes, 37° C., NADPH
Description: 2) Microsomal Stability Evaluation
(§3) Four liver microsomes (Human, Dog, Rat, Mouse 0.5 mg/ml) with a 0.1 M phosphate buffer solution (pH 7.4), and the arylethene derivative of the present invention were added to a concentration of 1 μM, culturing was performed at 37° C. for 5 minutes in advance, a NADPH regeneration system solution was added thereto, and culturing was performed at 37° C. for 30 minutes. Thereafter, in order to complete the reaction, an acetonitrile solution containing an internal standard material (chlorpropamide) was added thereto, centrifugation (14,000 rpm, 4° C.) was performed for 5 minutes, and a supernatant was injected into a LC-MS/MS system to analyze the substrate drug, thereby evaluating metabolism stability to the arylethene derivative of the present invention.

CYP3A4 = CYP3A4 (Homo sapiens (Human), UniProt P08684); test: Cytochrome P450 activity inhibition, CYP3A4; format: in vitro ADME; settings: 10 μM, human liver microsomes, Midazolam substrate
Excerpt: as §1

[4] = 1 μM, 30 minutes, 37° C., NADPH; remark: listed apart in the source
Description: 2) Microsomal Stability Evaluation
as §3

in vitro = in vitro ADME; settings: PBS pH 7.4, 25° C., 5 hours
CYP1A2 = CYP1A2 (Homo sapiens (Human), UniProt P05177); test: Cytochrome P450 activity inhibition, CYP1A2; format: in vitro ADME; settings: 10 μM, human liver microsomes, Phenacetin substrate
Excerpt: as §1

CYP2D6 = CYP2D6 (Homo sapiens (Human), UniProt P10635); test: Cytochrome P450 activity inhibition, CYP2D6; format: in vitro ADME; settings: 10 μM, human liver microsomes, Dextromethorphan substrate
Excerpt: as §1

in vivo = format: in vivo; settings: rat; for Cmax: read-out: Cmax
Description: An oral administration group fasts the day before.
Blood of each animal is collected at 0 hour.
Into a tail vein of an intravenous administration group (IV), a drug is injected at a dose of 1 mg/kg (syringe).
To an oral administration group (PO), a drug is orally administered at a dose of 10 mg/kg (oral zondec)
After administration, blood of the intravenous administration group was collected through a jugular vein 8 times at 0.08, 0.25, 0.5, 1, 2, 4, 6, and 8 hours. One collected blood amount is 400 to 500 ul.
After administration, blood of the oral administration group was collected through a jugular vein 6 times at 0.25, 0.5, 1, 4, 6 and 8 hours. One collected blood amount is 400 to 500 ul.
Supernatant plasma is collected by a centrifuge.
The supernatant plasma was injected into a LC-MS/MS system and the drug is analyzed.

CYP2C19 = CYP2C19 (Homo sapiens (Human), UniProt P33261); test: Cytochrome P450 activity inhibition, CYP2C19; format: in vitro ADME; settings: 10 μM, human liver microsomes, S-mephenytoin substrate
Excerpt: as §1

[5] = 1 μM, 30 minutes, 37° C., NADPH; remark: listed apart in the source
Description: 2) Microsomal Stability Evaluation
as §3

ERRβ = ERRβ (Homo sapiens, UniProt O95718); settings: TR-FRET, PGC1a coactivator; read-out: Binding Assay, IC50 ERRβ
Description: as §2

[6] = 1 μM, 30 minutes, 37° C., NADPH; remark: listed apart in the source
Description: 2) Microsomal Stability Evaluation
as §3

[7] = TR-FRET, beta-estradiol 4 nM as agonist, read-out: Binding Assay, IC50 ERα
[8] = activity relative to reference compound GSK5182, 10 μM

Chain of CYP2C19 (P33261 whole entry): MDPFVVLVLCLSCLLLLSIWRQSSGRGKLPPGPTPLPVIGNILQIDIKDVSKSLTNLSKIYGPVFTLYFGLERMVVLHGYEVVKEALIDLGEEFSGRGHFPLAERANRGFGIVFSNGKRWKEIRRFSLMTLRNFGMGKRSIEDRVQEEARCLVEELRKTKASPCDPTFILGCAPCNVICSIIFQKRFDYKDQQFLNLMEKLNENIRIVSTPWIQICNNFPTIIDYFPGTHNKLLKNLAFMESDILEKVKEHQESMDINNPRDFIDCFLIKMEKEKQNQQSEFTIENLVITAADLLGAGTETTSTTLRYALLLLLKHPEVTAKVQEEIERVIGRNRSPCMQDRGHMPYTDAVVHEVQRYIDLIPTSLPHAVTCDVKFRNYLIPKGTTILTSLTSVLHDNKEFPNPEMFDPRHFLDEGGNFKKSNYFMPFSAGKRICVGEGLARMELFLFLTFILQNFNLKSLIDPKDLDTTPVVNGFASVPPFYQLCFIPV
Chain of CYP1A2 (P05177 whole entry): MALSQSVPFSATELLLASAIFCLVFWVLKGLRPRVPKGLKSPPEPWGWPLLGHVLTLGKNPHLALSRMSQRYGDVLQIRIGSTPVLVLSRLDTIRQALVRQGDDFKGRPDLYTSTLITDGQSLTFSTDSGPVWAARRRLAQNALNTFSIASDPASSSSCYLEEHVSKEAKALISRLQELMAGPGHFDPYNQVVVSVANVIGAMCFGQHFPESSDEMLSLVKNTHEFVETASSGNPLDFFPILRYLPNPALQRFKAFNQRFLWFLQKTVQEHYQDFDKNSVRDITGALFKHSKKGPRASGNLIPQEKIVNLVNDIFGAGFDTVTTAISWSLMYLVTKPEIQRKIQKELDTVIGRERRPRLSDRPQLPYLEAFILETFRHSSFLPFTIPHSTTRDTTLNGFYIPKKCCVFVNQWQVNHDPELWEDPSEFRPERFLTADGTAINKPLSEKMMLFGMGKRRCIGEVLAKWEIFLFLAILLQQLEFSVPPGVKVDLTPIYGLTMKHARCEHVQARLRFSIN
Chain of GST-bound ERR alpha LBD (P11474 193-421): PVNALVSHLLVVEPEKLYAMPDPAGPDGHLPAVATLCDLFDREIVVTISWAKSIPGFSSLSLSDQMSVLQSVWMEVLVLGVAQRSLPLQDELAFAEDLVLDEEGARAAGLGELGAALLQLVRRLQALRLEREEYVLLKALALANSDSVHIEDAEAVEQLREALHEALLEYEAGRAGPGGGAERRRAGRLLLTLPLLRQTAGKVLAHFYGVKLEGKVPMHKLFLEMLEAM
Chain of GST-bound ERR gamma ligand-binding domain (LBD) (P62508 233-457): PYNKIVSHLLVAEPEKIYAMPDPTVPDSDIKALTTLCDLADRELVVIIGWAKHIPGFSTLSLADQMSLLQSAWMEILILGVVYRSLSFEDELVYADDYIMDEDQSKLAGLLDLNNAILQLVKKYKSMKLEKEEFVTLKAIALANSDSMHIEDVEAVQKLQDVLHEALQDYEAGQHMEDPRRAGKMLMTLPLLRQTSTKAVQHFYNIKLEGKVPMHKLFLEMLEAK
Chain of CYP2C9 (P11712 whole entry): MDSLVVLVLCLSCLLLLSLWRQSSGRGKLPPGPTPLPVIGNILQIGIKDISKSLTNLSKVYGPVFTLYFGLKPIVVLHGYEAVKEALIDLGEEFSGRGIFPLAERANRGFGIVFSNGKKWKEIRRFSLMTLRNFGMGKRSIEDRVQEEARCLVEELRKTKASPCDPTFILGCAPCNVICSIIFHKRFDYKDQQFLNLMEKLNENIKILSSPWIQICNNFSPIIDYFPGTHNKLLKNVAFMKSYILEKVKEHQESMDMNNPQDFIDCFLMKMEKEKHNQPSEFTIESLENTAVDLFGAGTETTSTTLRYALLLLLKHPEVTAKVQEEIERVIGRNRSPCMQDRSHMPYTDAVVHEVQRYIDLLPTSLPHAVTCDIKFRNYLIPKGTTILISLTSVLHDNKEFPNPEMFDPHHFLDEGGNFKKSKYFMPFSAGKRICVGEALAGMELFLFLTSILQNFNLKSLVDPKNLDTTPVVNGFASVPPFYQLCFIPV
Chain of GST-bound ER alpha ligand-binding domain (LBD) (P03372 whole entry, looked up, the tested form may be a part): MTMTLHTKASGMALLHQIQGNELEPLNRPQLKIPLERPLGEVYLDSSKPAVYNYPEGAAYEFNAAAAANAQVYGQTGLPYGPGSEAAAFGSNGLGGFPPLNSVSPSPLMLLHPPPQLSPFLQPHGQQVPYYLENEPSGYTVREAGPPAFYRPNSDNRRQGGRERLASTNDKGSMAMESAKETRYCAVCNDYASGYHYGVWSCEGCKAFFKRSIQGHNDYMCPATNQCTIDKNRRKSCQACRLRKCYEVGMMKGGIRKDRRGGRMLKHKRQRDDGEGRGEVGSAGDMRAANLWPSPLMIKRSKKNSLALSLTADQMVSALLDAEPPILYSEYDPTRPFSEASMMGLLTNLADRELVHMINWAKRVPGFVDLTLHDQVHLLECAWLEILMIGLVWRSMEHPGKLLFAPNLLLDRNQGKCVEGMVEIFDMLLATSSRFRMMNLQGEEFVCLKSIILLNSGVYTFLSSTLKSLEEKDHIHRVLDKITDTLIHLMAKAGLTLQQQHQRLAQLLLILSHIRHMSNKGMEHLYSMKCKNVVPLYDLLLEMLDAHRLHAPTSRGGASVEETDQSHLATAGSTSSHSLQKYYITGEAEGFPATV
Chain of ERRβ (O95718 whole entry, looked up): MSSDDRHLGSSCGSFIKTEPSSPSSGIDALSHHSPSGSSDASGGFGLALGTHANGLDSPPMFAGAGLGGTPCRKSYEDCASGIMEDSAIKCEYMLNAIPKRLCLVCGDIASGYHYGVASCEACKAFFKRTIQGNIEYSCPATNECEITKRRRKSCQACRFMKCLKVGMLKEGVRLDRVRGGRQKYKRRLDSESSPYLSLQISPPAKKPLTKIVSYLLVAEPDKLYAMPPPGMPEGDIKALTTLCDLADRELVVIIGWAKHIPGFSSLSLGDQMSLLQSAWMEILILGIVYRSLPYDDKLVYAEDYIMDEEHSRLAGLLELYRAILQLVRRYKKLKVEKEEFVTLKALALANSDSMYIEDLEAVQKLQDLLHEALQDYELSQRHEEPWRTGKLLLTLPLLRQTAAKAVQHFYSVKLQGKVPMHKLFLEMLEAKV
Chain of CYP2D6 (P10635 whole entry): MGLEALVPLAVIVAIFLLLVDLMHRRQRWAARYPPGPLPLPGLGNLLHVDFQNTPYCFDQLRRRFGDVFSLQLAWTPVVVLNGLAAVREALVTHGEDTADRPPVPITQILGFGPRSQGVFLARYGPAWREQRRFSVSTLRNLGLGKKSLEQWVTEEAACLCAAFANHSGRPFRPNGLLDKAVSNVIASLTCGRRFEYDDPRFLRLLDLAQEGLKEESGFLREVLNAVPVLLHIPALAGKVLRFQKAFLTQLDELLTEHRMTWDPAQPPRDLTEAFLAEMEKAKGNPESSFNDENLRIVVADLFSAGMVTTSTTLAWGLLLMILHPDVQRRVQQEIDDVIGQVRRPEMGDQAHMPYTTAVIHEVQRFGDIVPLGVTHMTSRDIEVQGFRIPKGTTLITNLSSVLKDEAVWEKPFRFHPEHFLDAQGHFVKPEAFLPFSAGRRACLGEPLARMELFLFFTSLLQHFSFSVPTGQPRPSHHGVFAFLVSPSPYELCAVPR
Chain of CYP3A4 (P08684 whole entry): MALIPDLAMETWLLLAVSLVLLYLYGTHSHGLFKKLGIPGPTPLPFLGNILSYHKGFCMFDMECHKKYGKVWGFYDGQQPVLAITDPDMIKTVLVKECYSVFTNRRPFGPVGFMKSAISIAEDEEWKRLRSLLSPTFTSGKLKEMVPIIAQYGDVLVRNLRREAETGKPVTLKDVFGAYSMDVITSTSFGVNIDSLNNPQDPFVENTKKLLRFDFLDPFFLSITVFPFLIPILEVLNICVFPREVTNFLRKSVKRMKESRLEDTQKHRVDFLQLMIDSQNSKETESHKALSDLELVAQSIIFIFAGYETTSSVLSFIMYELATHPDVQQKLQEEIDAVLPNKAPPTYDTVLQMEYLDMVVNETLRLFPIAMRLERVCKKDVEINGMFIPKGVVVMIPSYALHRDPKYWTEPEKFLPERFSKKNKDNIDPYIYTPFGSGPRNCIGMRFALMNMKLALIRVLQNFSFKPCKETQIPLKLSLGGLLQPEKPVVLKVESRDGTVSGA

Row | SMILES | IC50 (hERG channel) | IC50 (GST-bound ERR alpha LBD) | IC50 [2, 7] | Functional Assay at 10 μM (% of control), Cpds (ERRγ; 10 μM, 24 hours, AD293) | Functional Assay, Cpds/Ref 5182 (ERRγ; [8]) | CYP inhibition (% of control) 2C9 (CYP2C9) | MS(Microsomal Stability) (%) rat [3] | CYP inhibition (% of control) 3A4 (CYP3A4) | MS(Microsomal Stability) (%) human [4] | Permeability Pampa (in vitro) | CYP inhibition (% of control) 1A2 (CYP1A2) | CYP inhibition (% of control) 2D6 (CYP2D6) | CYP inhibition (% of control) 2C19 (CYP2C19) | MS(Microsomal Stability) (%) mouse [5] | IC50 (ERRβ) | MS(Microsomal Stability) (%) dog [6] | further results
1 | CN1CCCC1CCOc1ccc(/C(=C(/CCCO)c2ccccc2)c2ccc(O)cc2)cc1 (centres unmarked) [Compound 6g] | 5.4 µM | > 10 µM | 0.331 µM | 4.94 % of control | 1.60 |  |  |  |  |  |  |  |  |  |  |  | IC50 [1]: 0.03 µM
2 | CN1CCC[C@H]1COc1ccc(/C(=C(/CCCO)c2ccccc2)c2ccc(O)cc2)cc1 [Compound 6h] | 18 µM |  |  |  |  |  |  |  |  |  |  |  |  |  |  |  | IC50 [2]: 1.1 µM; Functional Assay at 10 μM (% of control), Cpds (ERRγ): 5.49 % of control; Functional Assay, Cpds/Ref 5182 (ERRγ): 1.78
3 | Cc1ccc(/C(=C(\CCCO)c2ccccc2)c2ccc(N3CCN(C(C)C)CC3)cc2)cc1 [Compound 18b] | > 30 µM | > 10 µM | > 10 µM | 2.45 % of control | 0.78 | 73.4 % of control | 40.0% | 53 % of control | 54.2% | 2.09 10^−6 cm/s | 89.8 % of control | 68.9 % of control | 69.7 % of control | 19.7% |  |  | AUCINF (in vivo; IV, 1 mg/kg): 0.64 μMh; AUCall (in vivo; IV, 1 mg/kg): 0.58 μMh; Vss (in vivo; IV, 1 mg/kg): 9.8 L/kg; t1/2 (in vivo; IV, 1 mg/kg): 3.1 h; AUCINF (in vivo; PO, 10 mg/kg): 0.36 μMh; AUCall (in vivo; PO, 10 mg/kg): 0.31 μMh; BA (in vivo; PO, 10 mg/kg): 8.7%; Tmax (in vivo; PO, 10 mg/kg): 0.6 h; Cmax (in vivo; PO, 10 mg/kg): 120 nM
4 | CN1CCN(c2ccc(/C(=C(/CCCO)c3ccccc3)c3ccc(O)cc3)cc2)CC1 [Compound 18d] | > 20 µM | > 10 µM | 1.7 µM | 9.65 % of control | 0.97 | 67.7 % of control |  | 64 % of control |  | 0.14 10^−6 cm/s | 88 % of control | 98.4 % of control | 81.2 % of control |  |  |  | 
5 | Cc1ccc(/C(=C(\CCCO)c2ccccc2)c2ccc(N3CCN(C)CC3)cc2)cc1 [Compound 18f] | 18.9 µM | > 10 µM | > 10 µM | 2.57 % of control | 0.82 | 62.3 % of control | 65.7% | 70.9 % of control | 79.2% | 4.84 10^−6 cm/s | >100 % of control | 68.2 % of control | 72.8 % of control | 47.6% |  |  | AUCINF (in vivo; IV, 1 mg/kg): 0.29 μMh; AUCall (in vivo; IV, 1 mg/kg): 0.28 μMh; Vss (in vivo; IV, 1 mg/kg): 30.3 L/kg; t1/2 (in vivo; IV, 1 mg/kg): 2.5 h; AUCINF (in vivo; PO, 10 mg/kg): 7.00 μMh; AUCall (in vivo; PO, 10 mg/kg): 2.93 μMh; BA (in vivo; PO, 10 mg/kg): 41.2%; Tmax (in vivo; PO, 10 mg/kg): 2.4 h; Cmax (in vivo; PO, 10 mg/kg): 450 nM
6 | CCN1CCN(c2ccc(/C(=C(/CCCO)c3ccccc3)c3ccc(O)cc3)cc2)CC1 [Compound 18i] | > 30 µM | > 10 µM | 1.14 µM | 1.88 % of control | 0.97 |  |  |  |  | 1.16 10^−6 cm/s |  |  |  |  |  |  | IC50 [1]: 0.05 µM
7 | CC(C)(C)OC(=O)N1CCN(c2ccc(/C(=C(/CCCO)c3ccccc3)c3ccc(Br)cc3)cc2)CC1 [Compound 18n] |  | 8.25 µM | 8.8 µM | 3.36 % of control | 0.82 |  |  |  |  | 0.63 10^−6 cm/s |  |  |  |  | 1.09 µM |  | 
8 | Cc1ccc(/C(=C(\CCCO)c2ccccc2)c2ccc(N3CCNCC3)cc2)cc1 [Compound 20b] |  | > 10 µM | > 10 µM | 3.58 % of control | 0.88 |  | 71.5% |  | 44% | 3.61 10^−6 cm/s |  |  |  | 28.8% | 2.1 µM | 58% | 
9 | OCCC/C(=C(\c1ccc(O)cc1)c1ccc(N2CCNCC2)cc1)c1ccccc1 [Compound 20j] |  | > 10 µM | 0.992 µM | 1.41 % of control | 1.38 | 77.1 % of control | 84.5% | 66.2 % of control | 76.8% |  | 93.6 % of control | 89.3 % of control | 62 % of control | 25.3% | 4.93 µM | 68.3% | 
10 | CC(C)N1CCC(c2ccc(/C(=C(/CCCO)c3ccccc3)c3ccc(O)cc3)cc2)CC1 [Compound 22g] | 22 µM | > 10 µM | 4.37 µM |  |  |  | 43.2% |  | 42.8% |  |  |  |  | 10.7% |  | 54.3% | 
11 | CC(C)N1CCC(c2ccc(/C(=C(/CCCO)c3ccccc3)c3cccc(O)c3)cc2)CC1 [Compound 22m] |  | > 10 µM | > 10 µM |  |  | 80.3 % of control | 53.5% | 58.1 % of control | 55.3% |  | 97 % of control | 70.7 % of control | >100 % of control | 24.2% | 7.82 µM | 55.0% | AUCINF (in vivo; IV, 1 mg/kg): 0.00 μMh; AUCall (in vivo; IV, 1 mg/kg): 0.34 μMh; Vss (in vivo; IV, 1 mg/kg): 19.9 L/kg; t1/2 (in vivo; IV, 1 mg/kg): 2.4 h; AUCINF (in vivo; PO, 10 mg/kg): 0.00 μMh; AUCall (in vivo; PO, 10 mg/kg): 0.73 μMh; BA (in vivo; PO, 10 mg/kg): 24.3%; Tmax (in vivo; PO, 10 mg/kg): 2.4 h; t1/2 (in vivo; PO, 10 mg/kg): 4.3 h; Cmax (in vivo; PO, 10 mg/kg): 130 nM
12 | OCCC/C(=C(/c1ccc(C2CCN(C3CC3)CC2)cc1)c1cccc(O)c1)c1ccccc1 [Compound 22r] | 16.4 µM |  |  |  |  | >100 % of control | 49.9% | 82.7 % of control | 62.0% |  | >100 % of control | 91.8 % of control | >100 % of control | 24.5% |  | 56.9% | AUCINF (in vivo; IV, 1 mg/kg): 0.87 μMh; AUCall (in vivo; IV, 1 mg/kg): 0.85 μMh; Vss (in vivo; IV, 1 mg/kg): 4.6 L/kg; t1/2 (in vivo; IV, 1 mg/kg): 1.8 h; AUCINF (in vivo; PO, 10 mg/kg): 5.29 μMh; AUCall (in vivo; PO, 10 mg/kg): 4.93 μMh; BA (in vivo; PO, 10 mg/kg): 58.2%; Tmax (in vivo; PO, 10 mg/kg): 1 h; t1/2 (in vivo; PO, 10 mg/kg): 2.3 h; Cmax (in vivo; PO, 10 mg/kg): 1510 nM
13 | OCCC/C(=C(\c1ccc(O)cc1)c1ccc(C2CCN(C3CC3)C2)cc1)c1ccccc1 (centres unmarked) [Compound 22t] |  | > 10 µM | 5.94 µM | 6.19 % of control |  |  |  |  |  |  |  |  |  |  | 3.56 µM |  | 
14 | OCCC/C(=C(\c1ccc(O)cc1)c1ccc(OCCN2C[C@H]3C[C@H]3[C@H]2CO)cc1)c1ccccc1 [Compound 38d] |  |  | 0.276 µM | 3.16 % of control | 0.77 | 55.3 % of control | 11.7% | 57.6 % of control | 6.9% |  | 79.2 % of control | 54.3 % of control | 58.8 % of control | 11.8% | 8.8 µM |  | IC50 [1]: 0.083 µM
